In PMC11087268, “A folate inhibitor exploits metabolic differences in Pseudomonas aeruginosa for narrow-spectrum targeting” (Nature Microbiology, 2024):

Tested on: E. coli MG1655
Test: Growth of E. coli MG1655 in TMI-supplemented media with fluorofolin
Type: cell-based, Escherichia coli

Compound: Nc1nc(N)c2c(ccc3c2ccn3Cc2ccnc(F)c2)n1 [fluorofolin]
- rescue of growth inhibition by TMI supplementation (E. coli MG1655, 0.3 mM TMI, fluorofolin 2× MIC): could also be rescued with TMI supplementation
- OD600 of E. coli MG1655 (Fluorofolin + TMI, Time 10 min): 0.007
- OD600 of E. coli MG1655 (Fluorofolin + TMI, Time 70 min): 0.0105
- OD600 of E. coli MG1655 (Fluorofolin + TMI, Time 80 min): 0.012
- OD600 of E. coli MG1655 (Fluorofolin + TMI, Time 90 min): 0.0135
- OD600 of E. coli MG1655 (Fluorofolin + TMI, Time 100 min): 0.015
- OD600 of E. coli MG1655 (Fluorofolin + TMI, Time 110 min): 0.0175
- OD600 of E. coli MG1655 (Fluorofolin + TMI, Time 120 min): 0.0195
- OD600 of E. coli MG1655 (Fluorofolin + TMI, Time 130 min): 0.0225
- OD600 of E. coli MG1655 (Fluorofolin + TMI, Time 140 min): 0.025
- OD600 of E. coli MG1655 (Fluorofolin + TMI, Time 150 min): 0.028
- OD600 of E. coli MG1655 (Fluorofolin + TMI, Time 160 min): 0.0305
- OD600 of E. coli MG1655 (Fluorofolin + TMI, Time 170 min): 0.0345
- OD600 of E. coli MG1655 (Fluorofolin + TMI, Time 180 min): 0.038
- OD600 of E. coli MG1655 (Fluorofolin + TMI, Time 190 min): 0.042
- OD600 of E. coli MG1655 (Fluorofolin + TMI, Time 200 min): 0.0465
- OD600 of E. coli MG1655 (Fluorofolin + TMI, Time 210 min): 0.052
- OD600 of E. coli MG1655 (Fluorofolin + TMI, Time 220 min): 0.0575
- OD600 of E. coli MG1655 (Fluorofolin + TMI, Time 230 min): 0.0625
- OD600 of E. coli MG1655 (Fluorofolin + TMI, Time 240 min): 0.068
- OD600 of E. coli MG1655 (Fluorofolin + TMI, Time 250 min): 0.0745
- OD600 of E. coli MG1655 (Fluorofolin + TMI, Time 260 min): 0.0815
- OD600 of E. coli MG1655 (Fluorofolin + TMI, Time 270 min): 0.0875
- OD600 of E. coli MG1655 (Fluorofolin + TMI, Time 280 min): 0.094
- OD600 of E. coli MG1655 (Fluorofolin + TMI, Time 290 min): 0.1
- OD600 of E. coli MG1655 (Fluorofolin + TMI, Time 300 min): 0.105
- OD600 of E. coli MG1655 (Fluorofolin + TMI, Time 310 min): 0.1105
- OD600 of E. coli MG1655 (Fluorofolin + TMI, Time 320 min): 0.1155
- OD600 of E. coli MG1655 (Fluorofolin + TMI, Time 330 min): 0.1215
- OD600 of E. coli MG1655 (Fluorofolin + TMI, Time 340 min): 0.1265
- OD600 of E. coli MG1655 (Fluorofolin + TMI, Time 350 min): 0.132
- OD600 of E. coli MG1655 (Fluorofolin + TMI, Time 360 min): 0.136
- OD600 of E. coli MG1655 (Fluorofolin + TMI, Time 370 min): 0.14
- OD600 of E. coli MG1655 (Fluorofolin + TMI, Time 380 min): 0.1435
- OD600 of E. coli MG1655 (Fluorofolin + TMI, Time 390 min): 0.147
- OD600 of E. coli MG1655 (Fluorofolin + TMI, Time 400 min): 0.151
- OD600 of E. coli MG1655 (Fluorofolin + TMI, Time 410 min): 0.155
- OD600 of E. coli MG1655 (Fluorofolin + TMI, Time 420 min): 0.1585
- OD600 of E. coli MG1655 (Fluorofolin + TMI, Time 430 min): 0.163
- OD600 of E. coli MG1655 (Fluorofolin + TMI, Time 440 min): 0.167
- OD600 of E. coli MG1655 (Fluorofolin + TMI, Time 450 min): 0.1715
- OD600 of E. coli MG1655 (Fluorofolin + TMI, Time 460 min): 0.176
- OD600 of E. coli MG1655 (Fluorofolin + TMI, Time 470 min): 0.181
- OD600 of E. coli MG1655 (Fluorofolin + TMI, Time 480 min): 0.1855
- OD600 of E. coli MG1655 (Fluorofolin + TMI, Time 490 min): 0.19
- OD600 of E. coli MG1655 (Fluorofolin + TMI, Time 500 min): 0.1955
- OD600 of E. coli MG1655 (Fluorofolin + TMI, Time 510 min): 0.2005
- OD600 of E. coli MG1655 (Fluorofolin + TMI, Time 520 min): 0.2055
- OD600 of E. coli MG1655 (Fluorofolin + TMI, Time 530 min): 0.21
- OD600 of E. coli MG1655 (Fluorofolin + TMI, Time 540 min): 0.2145
- OD600 of E. coli MG1655 (Fluorofolin + TMI, Time 970 min): 0.33
- OD600 of E. coli MG1655 (Fluorofolin, Time 10 min): -0.0085
- OD600 of E. coli MG1655 (Fluorofolin, Time 70 min): -0.005
- OD600 of E. coli MG1655 (Fluorofolin, Time 80 min): -0.003
- OD600 of E. coli MG1655 (Fluorofolin, Time 90 min): -0.0015
- OD600 of E. coli MG1655 (Fluorofolin, Time 100 min): 0.001
- OD600 of E. coli MG1655 (Fluorofolin, Time 110 min): 0.0035
- OD600 of E. coli MG1655 (Fluorofolin, Time 120 min): 0.006
- OD600 of E. coli MG1655 (Fluorofolin, Time 130 min): 0.009
- OD600 of E. coli MG1655 (Fluorofolin, Time 140 min): 0.0125
- OD600 of E. coli MG1655 (Fluorofolin, Time 150 min): 0.0155
- OD600 of E. coli MG1655 (Fluorofolin, Time 160 min): 0.018
- OD600 of E. coli MG1655 (Fluorofolin, Time 170 min): 0.02
- OD600 of E. coli MG1655 (Fluorofolin, Time 180 min): 0.023
- OD600 of E. coli MG1655 (Fluorofolin, Time 190 min): 0.0255
- OD600 of E. coli MG1655 (Fluorofolin, Time 200 min): 0.028
- OD600 of E. coli MG1655 (Fluorofolin, Time 210 min): 0.0305
- OD600 of E. coli MG1655 (Fluorofolin, Time 220 min): 0.033
- OD600 of E. coli MG1655 (Fluorofolin, Time 230 min): 0.035
- OD600 of E. coli MG1655 (Fluorofolin, Time 240 min): 0.0365
- OD600 of E. coli MG1655 (Fluorofolin, Time 250 min): 0.0395
- OD600 of E. coli MG1655 (Fluorofolin, Time 260 min): 0.0405
- OD600 of E. coli MG1655 (Fluorofolin, Time 270 min): 0.042
- OD600 of E. coli MG1655 (Fluorofolin, Time 280 min): 0.044
- OD600 of E. coli MG1655 (Fluorofolin, Time 290 min): 0.0455
- OD600 of E. coli MG1655 (Fluorofolin, Time 300 min): 0.0475
- OD600 of E. coli MG1655 (Fluorofolin, Time 310 min): 0.0485
- OD600 of E. coli MG1655 (Fluorofolin, Time 320 min): 0.0505
- OD600 of E. coli MG1655 (Fluorofolin, Time 330 min): 0.0515
- OD600 of E. coli MG1655 (Fluorofolin, Time 340 min): 0.053
- OD600 of E. coli MG1655 (Fluorofolin, Time 350 min): 0.0545
- OD600 of E. coli MG1655 (Fluorofolin, Time 360 min): 0.0555
- OD600 of E. coli MG1655 (Fluorofolin, Time 370 min): 0.0565
- OD600 of E. coli MG1655 (Fluorofolin, Time 380 min): 0.0575
- OD600 of E. coli MG1655 (Fluorofolin, Time 390 min): 0.058
- OD600 of E. coli MG1655 (Fluorofolin, Time 400 min): 0.059
- OD600 of E. coli MG1655 (Fluorofolin, Time 410 min): 0.0595
- OD600 of E. coli MG1655 (Fluorofolin, Time 420 min): 0.0605
- OD600 of E. coli MG1655 (Fluorofolin, Time 430 min): 0.061
- OD600 of E. coli MG1655 (Fluorofolin, Time 440 min): 0.0615
- OD600 of E. coli MG1655 (Fluorofolin, Time 450 min): 0.062
- OD600 of E. coli MG1655 (Fluorofolin, Time 460 min): 0.062
- OD600 of E. coli MG1655 (Fluorofolin, Time 470 min): 0.063
- OD600 of E. coli MG1655 (Fluorofolin, Time 480 min): 0.0635
- OD600 of E. coli MG1655 (Fluorofolin, Time 490 min): 0.0635
- OD600 of E. coli MG1655 (Fluorofolin, Time 500 min): 0.064
- OD600 of E. coli MG1655 (Fluorofolin, Time 510 min): 0.064
- OD600 of E. coli MG1655 (Fluorofolin, Time 520 min): 0.064
- OD600 of E. coli MG1655 (Fluorofolin, Time 530 min): 0.064
- OD600 of E. coli MG1655 (Fluorofolin, Time 540 min): 0.064
- OD600 of E. coli MG1655 (Fluorofolin, Time 970 min): 0.053
